Biological target: recombinant human CCR5 receptor (Homo sapiens, UniProt P51681)
Assay: in vitro radioligand binding assay: inhibition of iodinated MIP-1α binding to CCR5 membranes (scintillation proximity)
Conditions: displacement of 0.1 nM iodinated MIP-1α; membranes from Chinese hamster ovary cells expressing recombinant human CCR5; average if tested more than once
Protocol: The ability of compounds to inhibit the binding of MIP-1α was assessed by an in vitro radioligand binding assay. Membranes were prepared from Chinese hamster ovary cells which expressed the recombinant human CCR5 receptor. These membranes were incubated with 0.1 nM iodinated MIP-1α, scintillation proximity beads and various concentrations of the compounds of the invention in 96-well plates. The amount of iodinated MIP-1α bound to the receptor was determined by scintillation counting. Competition curves were obtained for compounds and the concentration of compound which displaced 50% of bound iodinated MIP-1α was calculated (IC50).
In Table VI the results are presented as Pic50 values. A Pic50 value is the negative log (to base 10) of the IC50 result, so an IC50 of 1 μM (that is 1×10^−6M) gives a Pic50 of 6. If a compound was tested more than once then the data below is an average of the probative tests results.

Sequence of recombinant human CCR5 receptor (P51681 whole entry): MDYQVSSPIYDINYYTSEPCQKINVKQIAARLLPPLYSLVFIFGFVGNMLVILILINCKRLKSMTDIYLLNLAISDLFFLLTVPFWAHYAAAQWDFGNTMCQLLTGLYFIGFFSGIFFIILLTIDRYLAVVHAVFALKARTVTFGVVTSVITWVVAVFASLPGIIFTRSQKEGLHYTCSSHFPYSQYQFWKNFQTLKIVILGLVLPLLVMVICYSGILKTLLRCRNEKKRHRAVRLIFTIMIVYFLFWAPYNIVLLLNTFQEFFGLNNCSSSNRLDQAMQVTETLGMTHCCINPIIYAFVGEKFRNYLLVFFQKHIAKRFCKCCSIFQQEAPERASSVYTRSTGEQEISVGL

## CC(=O)Nc1ccc(S(=O)(=O)NCC2CCN(CC[C@@H](c3cc(F)cc(F)c3)C3CCN(S(C)(=O)=O)CC3)CC2)cc1 [Compound 4 (Table I), N-[4-({[(1-{(3R)-3-(3,5-difluorophenyl)-3-[1-(methylsulfonyl)piperidin-4-yl]propyl}piperidin-4-yl)methyl]amino}sulfonyl)phenyl]-acetamide]
  IC50: 7.94 nM

## CS(=O)(=O)c1ccc([C@@H](CCN2CCC(CNS(=O)(=O)c3ccc(NS(=O)(=O)C(F)(F)F)cc3)CC2)c2cc(F)cc(F)c2)cc1 [Compound 16 (Table II), N-[(1-{(3R)-3-(3,5-difluorophenyl)-3-[4-(methylsulfonyl)phenyl]propyl}piperidin-4-yl)methyl]-4-{[(trifluoromethyl)sulfonyl]amino}-benzenesulfonamide]
  IC50: 50.1 nM

## CS(=O)(=O)c1ccc([C@@H](CCN2CCC(CNS(=O)(=O)c3ccc(-c4nnn[nH]4)cc3)CC2)c2cc(F)cc(F)c2)cc1 [Compound 19 (Table II), N-[(1-{(3R)-3-(3,5-difluorophenyl)-3-[4-(methylsulfonyl)phenyl]propyl}piperidin-4-yl)methyl]-4-(1H-tetrazol-5-yl)-benzenesulfonamide]
  IC50: 7.94 nM
